PMC12222954 (Nature Communications, 2025)

Key:
[1] = type: in vivo; details: SD rats; for effect on the intestinal absorption of capecitabine: COS 250 mg/kg
paraquat poisoning [2] = type: in vivo, SD rats; details: for survival rate: PQ-intoxicated rats, oral 2 h post-intoxication, over 15 days
paraquat poisoning [3] = test: Survival of paraquat-poisoned abcb1; type: in vivo; details: PQ-intoxicated abcb1(-/-) mice, 15 days
P-gp [4] = biological target: T1, P-gp (Homo sapiens, UniProt P08183); test: SPR affinity to P-gp in SMALP-MCF-7/ADR liposomes; type: binding
T1 sequence (P08183 whole entry): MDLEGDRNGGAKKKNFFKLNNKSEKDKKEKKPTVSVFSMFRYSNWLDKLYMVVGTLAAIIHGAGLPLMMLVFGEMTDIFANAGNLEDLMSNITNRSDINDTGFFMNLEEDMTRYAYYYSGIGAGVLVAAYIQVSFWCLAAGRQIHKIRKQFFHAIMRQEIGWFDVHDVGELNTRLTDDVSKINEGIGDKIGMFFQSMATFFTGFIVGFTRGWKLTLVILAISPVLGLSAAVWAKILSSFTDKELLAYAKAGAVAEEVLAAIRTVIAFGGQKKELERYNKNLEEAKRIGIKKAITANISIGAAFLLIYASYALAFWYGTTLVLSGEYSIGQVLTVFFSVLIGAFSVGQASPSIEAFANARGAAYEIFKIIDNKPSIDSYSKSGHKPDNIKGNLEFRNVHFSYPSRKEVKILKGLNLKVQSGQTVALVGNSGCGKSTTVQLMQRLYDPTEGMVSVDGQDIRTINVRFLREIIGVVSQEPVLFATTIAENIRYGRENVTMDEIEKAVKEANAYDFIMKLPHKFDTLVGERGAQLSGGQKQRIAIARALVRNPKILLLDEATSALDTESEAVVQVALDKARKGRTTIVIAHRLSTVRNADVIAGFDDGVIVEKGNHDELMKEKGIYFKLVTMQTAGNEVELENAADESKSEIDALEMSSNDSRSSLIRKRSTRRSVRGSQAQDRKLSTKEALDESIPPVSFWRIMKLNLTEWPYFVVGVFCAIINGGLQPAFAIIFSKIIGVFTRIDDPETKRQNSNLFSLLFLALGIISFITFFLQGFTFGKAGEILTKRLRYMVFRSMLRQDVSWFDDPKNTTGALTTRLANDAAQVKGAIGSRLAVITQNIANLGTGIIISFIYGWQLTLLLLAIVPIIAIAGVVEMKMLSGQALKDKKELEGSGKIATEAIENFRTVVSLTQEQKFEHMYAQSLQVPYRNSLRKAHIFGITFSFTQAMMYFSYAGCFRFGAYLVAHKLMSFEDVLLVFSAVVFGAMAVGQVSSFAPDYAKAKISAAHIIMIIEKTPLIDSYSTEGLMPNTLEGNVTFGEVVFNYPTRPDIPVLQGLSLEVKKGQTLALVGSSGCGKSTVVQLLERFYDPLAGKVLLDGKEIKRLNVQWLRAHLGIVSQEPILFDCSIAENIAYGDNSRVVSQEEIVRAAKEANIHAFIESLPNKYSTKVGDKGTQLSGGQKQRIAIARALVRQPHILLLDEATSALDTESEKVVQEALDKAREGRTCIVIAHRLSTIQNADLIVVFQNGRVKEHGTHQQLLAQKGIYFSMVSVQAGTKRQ

P-gp [5] = biological target: T1, P-gp; type: biochemical; details: GlcN 10 mM, 5 min pre-incubation
Caco-2 cells [6] = test: Cell viability, Cell Counting Kit-8; type: cell-based; details: 48 h
[7] = Pharmacokinetics of digoxin in wild-type FVB mice with or without GlcN; type: in vivo
[8] = Pharmacokinetics of digoxin in abcb1; type: in vivo; details: abcb1(-/-) mice
[9] = tested on: tight junctions between intestinal epithelial cells; test: TEM observation of tight junctions after oral GlcN; type: in vivo, SD rats; details: GlcN 250 mg/kg, 20 min
[10] = type: in vivo, SD rats; details: Sprague-Dawley, rat, oral
P-gp [11] = biological target: T1, P-gp; test: Efflux of Rh123 from preloaded Caco-2 cells; type: cell-based; details: Rh123-preloaded Caco-2 cells, vs control
P-gp [12] = biological target: T1, P-gp; test: Cellular uptake of Rh123 in P-gp silenced; type: cell-based; details: P-gp knockdown Caco-2 cells, various concentrations
[13] = type: in vivo; details: FVB mice, GlcN 500 mg/kg
A549 cells = type: cell-based
[14] = Molar osmotic pressure of solution after adding GlcN or Glu; type: physicochemical; details: GlcN concentrations below 20 mM
CYP3A4 = CYP3A4 (Homo sapiens, UniProt P08684); details: 30 min incubation, 100 μM GlcN
CYP3A4, sequence (P08684 whole entry): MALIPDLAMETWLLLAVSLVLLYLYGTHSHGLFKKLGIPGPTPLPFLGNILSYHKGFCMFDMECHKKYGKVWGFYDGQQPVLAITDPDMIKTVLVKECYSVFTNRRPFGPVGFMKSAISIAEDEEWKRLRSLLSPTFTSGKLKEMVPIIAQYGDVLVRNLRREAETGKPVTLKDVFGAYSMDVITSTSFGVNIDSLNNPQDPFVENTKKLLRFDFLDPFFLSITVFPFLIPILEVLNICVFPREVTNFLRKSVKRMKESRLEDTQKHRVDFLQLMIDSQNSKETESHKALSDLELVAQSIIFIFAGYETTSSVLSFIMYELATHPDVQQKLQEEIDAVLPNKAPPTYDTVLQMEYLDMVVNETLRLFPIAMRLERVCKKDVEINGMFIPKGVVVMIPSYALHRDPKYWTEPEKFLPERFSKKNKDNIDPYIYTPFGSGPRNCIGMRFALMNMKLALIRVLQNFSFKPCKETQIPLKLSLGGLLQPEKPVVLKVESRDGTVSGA

Caco-2 cells [15] = type: cell-based
P-gp [16] = biological target: T1, P-gp; test: Transport of paraquat in P-gp recombinant inside-out vesicle model; type: biochemical; details: P-gp inside-out vesicles
[17] = Intestinal transport rate, everted intestinal sac model; type: in vitro ADME, SD rats; details: pre-incubation 40 min
[18] = type: in vivo; details: abcb1(-/-) mice, GlcN 500 mg/kg
P-gp-mediated ATPase = P-gp-mediated ATPase (Homo sapiens, UniProt P08183); test: P-gp-mediated ATPase activity in Caco-2 cells; type: cell-based; details: 10 μM GlcN
P-gp-mediated ATPase, sequence (P08183 whole entry): as the sequence (P08183 whole entry) above

paraquat poisoning [19] = test: Survival of paraquat-poisoned FVB mice; type: in vivo, wt FVB mice; details: PQ-intoxicated FVB mice

With `N[C@H]1[C@H](O[C@H]2[C@H](O)[C@@H](N)C(O)O[C@@H]2CO)O[C@H](CO)[C@@H](O)[C@@H]1O` (some centres unmarked) [COS2, chitobiose] the “effect on the intestinal absorption of capecitabine” value (shortened to “effect on the intestinal absorption”) [1] was “inhibited”.
With `C[n+]1ccc(-c2cc[n+](C)cc2)cc1` [PQ, N,N’-dimethyl-4,4’-bipyridinium] the “time within which all poisoned rats without administration died” value (paraquat poisoning [2]; paraquat 350 mg/kg oral, SD rats) was ≤ 6 days.
For `C[C@@H]1C[C@H]2[C@@H]3CCC4=CC(=O)C=C[C@]4(C)[C@@]3(F)[C@@H](O)C[C@]2(C)[C@@]1(O)C(=O)CO` [DEX, dexamethasone, reference compound], the survival rate (paraquat poisoning [2]) was 30% and the effect on survival (paraquat poisoning [3]) was “does not improve the survival rate within 15 days”.
In the case of `N[C@H]1[C@H](O[C@H]2[C@H](O)[C@@H](N)[C@H](O[C@H]3[C@H](O)[C@@H](N)[C@H](O[C@H]4[C@H](O)[C@@H](N)[C@H](O[C@H]5[C@H](O)[C@@H](N)C(O)O[C@@H]5CO)O[C@@H]4CO)O[C@@H]3CO)O[C@@H]2CO)O[C@H](CO)[C@@H](O)[C@@H]1O` (some centres unmarked) [COS5, chitopentaose], the “effect on the intestinal absorption” value [1] is reported as “facilitated”.
For `N[C@H]1[C@H](O[C@H]2[C@H](O)[C@@H](N)[C@H](O[C@H]3[C@H](O)[C@@H](N)C(O)O[C@@H]3CO)O[C@@H]2CO)O[C@H](CO)[C@@H](O)[C@@H]1O` (some centres unmarked) [COS3, chitotriose], the Kd (P-gp [4]) was 276 µM, the “AUC of capecitabine, of the control group” value [1] was 12.65% and the “effect on the intestinal absorption” value [1] was “inhibited”.
In the case of `N[C@H]1C(O)O[C@H](CO)[C@@H](O)[C@@H]1O` (some centres unmarked) [GlcN, Glucosamine], the “transport activity relative to the control group” value (P-gp [5]) is reported as ~ 1.48 times, the survival rate (paraquat poisoning [2]) is reported as 60% and the “concentrations that did not induce significant cytotoxicity” value (Caco-2 cells [6]) is reported as “below 50 mM”. The “effect on oral absorption of digoxin” value [7] was “significantly inhibited”, the “effect on in vivo pharmacokinetic behavior of digoxin” value [8] was “does not affect” and the “tight junctions between intestinal epithelial cells before and after oral GlcN” value [9] was “remained unchanged”. For the same molecule, the “reduction of PQ peak plasma concentration and bioavailability” value [10] was ~ 60%, the “effect on fluorescence intensity of intracellular Rh123 / Rh123 transport” value (P-gp [11]) was “notably reduced” and the “effect on intracellular accumulation level of Rh123” value (P-gp [12]) was “hardly had any effect”. The “effect on PQ absorption” value [13] was “significantly reduced”, the “effect on resistance to paraquat (cell viability)” value (A549 cells) was “significantly enhanced the resistance” and the ΔOsmolality [14] was “below 20 mOsmol/kg”. The “boost of CYP3A4 enzyme activity compared to the control group” value (CYP3A4) was 301%, the “effect on resistance to paraquat (cell viability)” value (Caco-2 cells [15]) was “significantly enhanced the resistance” and the “effect on paraquat transport” value (P-gp [16]) was “enhanced its transport”. For the same molecule, the “inhibitory effect on intestinal drug transport after prolonged pre-incubation” value [17] was “reverses the inhibitory effect”, the effect on survival (paraquat poisoning [3]) was “fails to significantly rescue” and the “effect on PQ pharmacokinetics” value [18] was “no substantial effect”. The “ATPase activity compared to baseline at peak effect” value (P-gp-mediated ATPase) was “doubled” and the “effect on survival rate” value (paraquat poisoning [19]) was “improves the survival rate”.
With `OC[C@H]1OC(O)[C@H](O)[C@@H](O)[C@@H]1O` (some centres unmarked) [glucose, reference compound] the “effect on fluorescence intensity of intracellular Rh123 / Rh123 transport” value (P-gp [11]) was “no discernible effect”.
